Experiment: xn = mol fraction of the nth substance listed
Details: 100 kPa, Liquid; for mass density: Vibrating tube method; for viscosity: Falling or rolling sphere viscometry

OCCO [1,2-ethanediol] + O
Details | mass density, 288.15 K [kg/m3] | mass density, 293.15 K [kg/m3] | mass density, 298.15 K [kg/m3] | mass density, 303.15 K [kg/m3] | mass density, 308.15 K [kg/m3] | mass density, 313.15 K [kg/m3] | mass density, 318.15 K [kg/m3] | viscosity, 293.15 K [mPa·s] | viscosity, 298.15 K [mPa·s] | viscosity, 303.15 K [mPa·s]
x2 = 0 | – | 1113.3 | – | 1106.8 | – | 1099.1 | – | 21.13 | 17.24 | 14.23
x2 = 0.1037 | 1114.7 | 1111.1 | 1108 | 1104.4 | 1100.5 | 1096.7 | 1093.8 | – | – | –
x2 = 0.1105 | – | – | – | – | – | – | – | 17.58 | 14.33 | 11.86
x2 = 0.1593 | 1113.6 | – | 1106.9 | – | 1099.3 | 1095.4 | 1092.4 | – | – | –
x2 = 0.2014 | – | – | – | – | – | – | – | 14.95 | 12.19 | 10.14
x2 = 0.2189 | 1111.9 | 1108.3 | 1105.2 | 1101.6 | 1097.6 | 1093.7 | 1090.7 | – | – | –
x2 = 0.2669 | – | 1106.8 | 1103.6 | 1100.1 | – | 1092.1 | – | – | – | –
x2 = 0.3002 | – | – | – | – | – | – | – | 12.4 | 10.18 | 8.45
x2 = 0.3165 | 1108.3 | 1104.8 | 1101.7 | 1098.2 | 1094.2 | 1090.3 | 1087.3 | – | – | –
x2 = 0.3496 | 1106.8 | – | 1100.3 | 1096.8 | 1092.9 | – | 1086 | – | – | –
x2 = 0.3994 | 1104.4 | 1101.1 | 1098 | 1094.4 | 1090.6 | 1086.9 | 1083.9 | – | – | –
x2 = 0.4011 | – | – | – | – | – | – | – | 10.05 | 8.31 | 6.968
x2 = 0.4449 | 1101.8 | 1098.5 | – | 1092.2 | 1088.4 | 1084.6 | 1081.6 | – | – | –
x2 = 0.4969 | – | – | – | – | – | – | – | 8.185 | 6.791 | 5.653
x2 = 0.5061 | 1098 | 1094.8 | 1091.8 | 1088.5 | 1084.7 | 1081.1 | 1078.1 | – | – | –
x2 = 0.5563 | 1094.5 | 1091.4 | 1088.4 | 1085.1 | 1081.3 | 1077.8 | 1074.6 | – | – | –
x2 = 0.6022 | – | – | – | – | – | – | – | 6.297 | 5.208 | 4.396
x2 = 0.6055 | 1090.6 | 1087.4 | 1084.5 | 1081.3 | 1077.6 | 1074 | 1071.1 | – | – | –
x2 = 0.6518 | 1085.7 | 1082.6 | 1079.7 | 1076.5 | 1072.9 | 1069.5 | 1066.3 | – | – | –
x2 = 0.6995 | – | – | – | – | – | – | – | 4.584 | 3.884 | 3.345
x2 = 0.7001 | 1079.8 | 1076.8 | 1073.7 | 1070.6 | 1067.3 | 1064 | 1060.7 | – | – | –
x2 = 0.7482 | 1072.6 | 1069.7 | 1066.7 | 1063.7 | 1060.6 | 1057.4 | 1054.3 | – | – | –
x2 = 0.7994 | – | – | – | – | – | – | – | 3.122 | 2.682 | 2.328
x2 = 0.8015 | 1063 | 1060.1 | 1057.4 | 1054.5 | 1051.5 | 1048.4 | 1045.6 | – | – | –
x2 = 0.8444 | 1052.6 | 1050.2 | 1048 | 1045.5 | 1042.6 | 1039.6 | 1037.1 | – | – | –
x2 = 0.8997 | – | – | – | – | – | – | – | 1.918 | 1.664 | 1.446
x2 = 0.901 | 1036.4 | 1034.6 | 1032.8 | 1030.7 | 1028 | 1025.4 | 1023.5 | – | – | –

OCCCCO [1,4-butanediol] + O
Details | mass density, 288.15 K [kg/m3] | mass density, 293.15 K [kg/m3] | mass density, 298.15 K [kg/m3] | mass density, 303.15 K [kg/m3] | mass density, 308.15 K [kg/m3] | mass density, 313.15 K [kg/m3] | mass density, 318.15 K [kg/m3] | viscosity, 293.15 K [mPa·s] | viscosity, 298.15 K [mPa·s] | viscosity, 303.15 K [mPa·s]
x2 = 0 | 1018.6 | 1016.3 | 1012.9 | 1009.9 | 1006.9 | 1003.2 | 1000.8 | 90.7 | 69.89 | 55.24
x2 = 0.0992 | 1020.8 | 1018.3 | 1014.8 | 1011.8 | 1008.9 | 1005.2 | 1002.6 | – | – | –
x2 = 0.1257 | – | – | – | – | – | – | – | 75.28 | 57.95 | 45.05
x2 = 0.152 | 1021.8 | 1019.3 | 1015.8 | 1012.8 | 1009.8 | 1006.1 | 1003.4 | – | – | –
x2 = 0.2039 | 1022.8 | 1020.3 | 1016.7 | 1013.7 | 1010.6 | 1006.9 | 1004.2 | – | – | –
x2 = 0.2513 | 1023.6 | 1021.1 | 1017.6 | 1014.5 | 1011.4 | 1007.6 | 1004.9 | – | – | –
x2 = 0.2783 | – | – | – | – | – | – | – | 58.11 | 44.52 | 33.59
x2 = 0.3003 | 1024.5 | 1021.9 | 1018.3 | 1015.2 | 1012.1 | 1008.3 | 1005.6 | – | – | –
x2 = 0.3033 | – | – | – | – | – | – | – | 54.65 | 42 | 31.63
x2 = 0.3534 | 1025.3 | 1022.7 | 1019.1 | 1015.9 | 1012.8 | 1009 | 1006.3 | – | – | –
x2 = 0.4009 | – | – | – | – | – | – | – | 44.04 | 33.94 | 25.07
x2 = 0.4399 | 1026.2 | 1023.6 | 1020 | 1016.8 | 1013.6 | 1009.8 | 1007.1 | – | – | –
x2 = 0.4482 | 1026.6 | 1024 | 1020.3 | 1017.1 | 1013.9 | 1010.1 | 1007.3 | – | – | –
x2 = 0.5008 | – | – | – | – | – | – | – | 33.85 | 25.34 | 18.65
x2 = 0.5011 | 1027.2 | 1024.5 | 1020.8 | 1017.7 | 1014.5 | 1010.6 | 1007.8 | – | – | –
x2 = 0.5515 | 1027.6 | 1025 | 1021.1 | 1017.9 | 1014.8 | 1010.9 | 1008.1 | – | – | –
x2 = 0.6114 | 1027.7 | 1025.1 | 1021.3 | 1018.2 | 1015.1 | 1011.2 | 1008.3 | – | – | –
x2 = 0.6527 | 1027.6 | 1025 | 1021.3 | 1018.1 | 1015.1 | 1011.2 | 1008.4 | – | – | –
x2 = 0.6662 | – | – | – | – | – | – | – | 19.58 | 13.9 | 10.11
x2 = 0.7003 | – | – | – | – | – | – | – | 16.6 | 11.57 | 8.774
x2 = 0.7005 | 1027.2 | 1024.5 | 1021 | 1017.8 | 1014.8 | 1011 | 1008.3 | – | – | –
x2 = 0.7501 | 1026.3 | 1023.6 | 1020.1 | 1016.9 | 1013.9 | 1010.3 | 1007.4 | – | – | –
x2 = 0.7998 | 1024.2 | 1021.5 | 1018.3 | 1015.3 | 1012.5 | 1008.9 | 1006.2 | – | – | –
x2 = 0.8013 | – | – | – | – | – | – | – | 9.634 | 6.814 | 5.035
x2 = 0.8492 | 1021.3 | 1018.9 | 1015.8 | 1012.9 | 1010.2 | 1007.1 | 1004 | – | – | –
x2 = 0.8979 | – | – | – | – | – | – | – | 4.127 | 3.267 | 2.369
x2 = 0.9001 | 1015.9 | 1014.1 | 1011.7 | 1009.2 | 1006.7 | 1003.6 | 1000.9 | – | – | –
x2 = 0.9488 | 1008.1 | 1006.7 | 1004.7 | 1003.3 | 1001.1 | 998.7 | 996.2 | – | – | –

OCCCCCO [1,5-pentanediol] + O
Details | mass density, 288.15 K [kg/m3] | mass density, 293.15 K [kg/m3] | mass density, 298.15 K [kg/m3] | mass density, 303.15 K [kg/m3] | mass density, 308.15 K [kg/m3] | mass density, 313.15 K [kg/m3] | mass density, 318.15 K [kg/m3] | viscosity, 293.15 K [mPa·s] | viscosity, 298.15 K [mPa·s] | viscosity, 303.15 K [mPa·s]
x2 = 0 | 992.2 | 989.2 | 986.2 | 983.2 | 980.3 | 977.4 | 974.8 | 118.7 | 86.79 | 68.3
x2 = 0.1326 | 995.2 | 992.1 | 989 | 985.9 | 982.9 | 979.9 | 977.3 | – | – | –
x2 = 0.2201 | 997 | 993.9 | 990.8 | 987.7 | 984.7 | 981.7 | 979 | – | – | –
x2 = 0.2345 | 997.3 | 994.2 | 991 | 988 | 985 | 982 | 979.3 | – | – | –
x2 = 0.2586 | – | – | – | – | – | – | – | 92.52 | 70.36 | 54.61
x2 = 0.3 | – | – | – | – | – | – | – | 85.43 | 65.59 | 51.03
x2 = 0.3001 | 998.6 | 995.5 | 992.4 | 989.3 | 986.3 | 983.3 | 980.6 | – | – | –
x2 = 0.406 | 1000.7 | 997.6 | 994.5 | 991.4 | 988.5 | 985.5 | 982.8 | – | – | –
x2 = 0.4864 | – | – | – | – | – | – | – | 51.43 | 39.51 | 31
x2 = 0.4969 | 1002.6 | 999.5 | 996.4 | 993.4 | 990.5 | 987.6 | 985 | 49.66 | 38.56 | 30.24
x2 = 0.5262 | 1003.2 | 1000.2 | 997.1 | 994.1 | 991.2 | 988.3 | 985.7 | – | – | –
x2 = 0.5488 | 1003.7 | 1000.7 | 997.7 | 994.7 | 991.8 | 988.9 | 986.3 | – | – | –
x2 = 0.6032 | 1004.8 | 1001.9 | 998.9 | 996 | 993.1 | 990.2 | 987.6 | – | – | –
x2 = 0.6777 | – | – | – | – | – | – | – | 25.01 | 19.75 | 15.78
x2 = 0.7012 | 1006.6 | 1003.8 | 1000.9 | 998 | 995.2 | 992.3 | 989.8 | – | – | –
x2 = 0.7611 | – | – | – | – | – | – | – | 16.1 | 12.71 | 10.16
x2 = 0.7745 | 1007.1 | 1004.6 | 1001.9 | 999.1 | 996.4 | 993.7 | 991.2 | – | – | –
x2 = 0.8051 | 1007 | 1004.6 | 1002.1 | 999.5 | 996.7 | 994.1 | 991.6 | – | – | –
x2 = 0.8474 | – | – | – | – | – | – | – | 8.205 | 6.627 | 5.439
x2 = 0.8998 | 1005.3 | 1003.2 | 1000.9 | 998.6 | 996.3 | 993.9 | 992 | – | – | –
x2 = 0.9205 | – | – | – | – | – | – | – | 3.733 | 3.103 | 2.615

— the NIST ThermoML archive (doi:10.1021/acs.jced.6b00526)
